Experimental data from EP0923576B1, “4-AMINOETHOXY-INDOLONE DERIVATIVES AS DOPAMINE D2 AGONISTS” (Wyeth, priority 1996, dated 1998).

Assays:
dopamine D-2 receptor = biological target: T1, dopamine D-2 receptor (Rattus norvegicus, UniProt P61169); assay: 3H-spiroperidol binding, affinity for the dopamine D-2 receptor in homogenized limbic brain tissue; conditions: for Ratio: ratio IC50 D2 Spiper / IC50 D2 Quin. (LowAg/HighAg), predicts intrinsic activity; for IC50: read-out: IC50 (nM) D2 Spiper
T1 construct: homogenized limbic brain tissue is incubated with ^3H-spiroperidol; from tissue

dopamine autoreceptor = dopamine autoreceptor (Rattus norvegicus, UniProt P61169); assay: 3H-quinpirole binding, affinity for the dopamine autoreceptor in homogenized striatal brain tissue
Chain of dopamine autoreceptor (P61169 whole entry): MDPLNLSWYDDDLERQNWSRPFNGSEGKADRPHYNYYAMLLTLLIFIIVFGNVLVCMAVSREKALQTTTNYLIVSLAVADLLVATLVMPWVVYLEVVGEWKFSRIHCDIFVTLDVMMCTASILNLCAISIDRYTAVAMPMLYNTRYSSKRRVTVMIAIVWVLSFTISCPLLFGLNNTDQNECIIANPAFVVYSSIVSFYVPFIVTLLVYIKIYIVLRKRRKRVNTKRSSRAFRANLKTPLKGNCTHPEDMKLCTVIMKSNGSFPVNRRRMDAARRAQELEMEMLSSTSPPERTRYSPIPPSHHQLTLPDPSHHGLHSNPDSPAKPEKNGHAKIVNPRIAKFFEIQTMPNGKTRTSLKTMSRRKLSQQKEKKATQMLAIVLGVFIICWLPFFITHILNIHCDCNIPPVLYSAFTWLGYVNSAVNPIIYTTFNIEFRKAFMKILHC

T1 sequence (P61169 whole entry): as above

| Ratio (dopamine D-2 receptor) | IC50 (dopamine D-2 receptor) [nM] | IC50 (dopamine autoreceptor) [µM] | Compound |
| --- | --- | --- | --- |
| 293 | 398 | 0.00136 | O=C1Cc2c(OCCNCc3cccs3)ccc(F)c2N1 [Example 3b, 4-[2-(Thien-2-ylmethyl)aminoethoxy]-7-fluoro-1,3-dihydro-indol-2-one] |
| 91 | 135 | 0.00149 | CSC1C(=O)Nc2c(F)ccc(OCCNCc3ccsc3)c21 (stereo not drawn) [Example 1] |
| 30.5 | 33.5 | 0.0011 | O=C1Cc2c(OCCNCc3cccs3)ccc(Cl)c2N1 [Example 2a, 4-[2-Thien-2-ylmethyl)aminoethoxyl-7-chloro-1,3-dihydro-indol-2-one] |
| 128 | 323 | 0.00253 | O=C1Cc2c(OCCNCc3ccsc3)ccc(F)c2N1 [Example 3a] |
| 37.7 | 26.7 | 0.00071 | O=C1Cc2c(OCCNCc3ccsc3)ccc(Cl)c2N1 [Example 2b, 4-[2-(Thien-3-ylmethyl)aminoethoxy]-7-chloro 1,3-dihydro-indol-2-one] |
